Results: patent publication US20060069132A1, “Azolecarboxamide herbicides” (priority 2004, published 2006)

Key:
Surinam grass = assay: Test C pre-/postemergence herbicide test; assay type: in vivo, Urochloa decumbens; settings: for Plant response rating (0 = no effect, 100 = complete control), Surinam Grass: 62 g ai/ha; for Plant response rating (0 = no effect, 100 = complete control), Surinam Grass / Plant response rating, Surinam Grass: preemergence; for Plant response rating, Surinam Grass: visual, 12 to 14 days; for Surinam Grass plant response rating: 500 g ai/ha
Summary of the method: (§1)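 Seeds were planted and sprayed preemergence with test chemicals in a non-phytotoxic solvent mixture containing surfactant; postemergence treatments went onto plants 2 to 18 cm tall (1- to 4-leaf stage). After 12 to 14 days in a greenhouse, injury was rated visually against untreated controls on a 0–100 scale.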

corn = assay: Test C pre-/postemergence herbicide test; assay type: in vivo, Zea mays; settings: for Corn plant response rating: 500 g ai/ha
Summary of the method: as §1

[1] = tested on: smallflower umbrella sedge; assay: Test C flooded paddy test; assay type: in vivo, Cyperus difformis; settings: for Plant response rating, Sedge, Umbrella: 500 g ai/ha, visual rating after 12 to 14 days
eastern black nightshade = assay: Test C pre-/postemergence herbicide test; assay type: in vivo, Solanum ptycanthum; settings: for Plant response rating (0 = no effect, 100 = complete control), Nightshade: 62 g ai/ha; for Plant response rating (0 = no effect, 100 = complete control), Nightshade / Plant response rating, Nightshade: preemergence; for Plant response rating, Nightshade: visual, 12 to 14 days; for Nightshade plant response rating: Preemergence, 500 g ai/ha, scale 0 to 100, 0 no effect, 100 complete control
Summary of the method: as §1

morningglory = assay: Test A pre-/postemergence herbicide test; assay type: in vivo, Ipomoea spp.; settings: for Plant response rating, Morningglory: Postemergence; for Morningglory plant response rating: Preemergence
Summary of the method: (§2)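 Seeds sown in sandy loam received a preemergence directed soil spray of compound in non-phytotoxic solvent with surfactant; postemergence plants (2–10 cm, one- to two-leaf stage) were sprayed to runoff at the same time. After ~10 days in greenhouse, injury was rated visually versus untreated controls (0 = no effect, 100 = complete control).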

barnyardgrass = assay: Test A pre-/postemergence herbicide test; assay type: in vivo, Echinochloa crus-galli; settings: for Plant response rating, Barnyardgrass: Postemergence; for Barnyardgrass plant response rating: Preemergence
Summary of the method: as §2

[2] = tested on: common (oilseed) sunflower; assay: Test C pre-/postemergence herbicide test; assay type: in vivo, Helianthus annuus; settings: for Plant response rating (0 = no effect, 100 = complete control), Sunflower: 62 g ai/ha; for Plant response rating (0 = no effect, 100 = complete control), Sunflower / Plant response rating, Sunflower: preemergence; for Plant response rating, Sunflower: visual, 12 to 14 days; for Sunflower plant response rating: Preemergence, 500 g ai/ha, scale 0 to 100, 0 no effect, 100 complete control
Summary of the method: as §1

johnsongrass = assay: Test C pre-/postemergence herbicide test; assay type: in vivo, Sorghum halepense; settings: for Johnsongrass plant response rating: 500 g ai/ha
Summary of the method: as §1

velvetleaf = assay: Test C pre-/postemergence herbicide test; assay type: in vivo, Abutilon theophrasti; settings: for Velvetleaf plant response rating: 500 g ai/ha
Summary of the method: as §1

woolly cupgrass = assay: Test C pre-/postemergence herbicide test; assay type: in vivo, Eriochloa villosa; settings: for Cupgrass, Woolly plant response rating: 500 g ai/ha
Summary of the method: as §1

[3] = 125 g ai/ha, scale 0 (no effect) to 100 (complete control)
[4] = 250 g ai/ha, scale 0 to 100 (0 no effect, 100 complete control)
[5] = Preemergence, scale 0 to 100, 0 no effect, 100 complete control
[6] = 125 g ai/ha, scale 0 (no effect) to 100 (complete control), visual, 12 to 14 days, preemergence
[7] = 250 g ai/ha, scale 0 to 100 (0 no effect, 100 complete control), visual, 12 to 14 days, preemergence
[8] = Postemergence, 125 g ai/ha, scale 0 to 100, 0 no effect, 100 complete control
[9] = Postemergence, 250 g ai/ha, scale 0 to 100, 0 no effect, 100 complete control
[10] = postemergence, 62 g ai/ha, scale 0 to 100
[11] = 62 g ai/ha, scale 0 to 100 (0 no effect, 100 complete control)
[12] = 125 g ai/ha, scale of 0 to 100, 0 is no effect, 100 is complete control
[13] = 250 g ai/ha, scale of 0 to 100, 0 is no effect, 100 is complete control
[14] = scale 0 to 100 (0 no effect, 100 complete control)
[15] = 500 g ai/ha, 0 to 100 scale, 0 no effect, 100 complete control
[16] = 2000 g ai/ha, 0 to 100 scale, 0 no effect, 100 complete control
[17] = 500 g ai/ha, visual rating, 0 to 100 scale (0 no effect, 100 complete control)

Compound: CCNC(=O)c1cc(NC(=O)c2cc(C(C)(C)C)nn2CC)ccc1F [Compound 58]
- Plant response rating (0 = no effect, 100 = complete control), Surinam Grass (Surinam grass): 10
- Plant response rating, Surinam Grass (Surinam grass; [3]): 55
- Plant response rating, Surinam Grass (Surinam grass; [4]): 80
- Surinam Grass plant response rating (Surinam grass; Postemergence, scale 0 to 100): 25
- Surinam Grass plant response rating (Surinam grass; [5]): 100
- Plant response rating (0 = no effect, 100 = complete control), Corn (corn; 62 g ai/ha, preemergence): 0
- Plant response rating, Corn (corn; [6]): 0
- Plant response rating, Corn (corn; [7]): 0
- Corn plant response rating (corn; Postemergence, scale 0 to 100): 15
- Plant response rating, Corn (corn; [8]): 5
- Plant response rating, Corn (corn; [9]): 5
- Corn plant response rating (corn; [5]): 0
- Plant response rating, Corn (corn; [10]): 0
- Sedge, Umbrella plant response rating [1, 11]: 0
- Sedge, Umbrella plant response rating [1, 12]: 20
- Sedge, Umbrella plant response rating [1, 13]: 50
- Plant response rating, Sedge, Umbrella [1, 14]: 65
- Plant response rating (0 = no effect, 100 = complete control), Nightshade (eastern black nightshade): 95
- Plant response rating, Nightshade (eastern black nightshade; [3]): 100
- Plant response rating, Nightshade (eastern black nightshade; [4]): 100
- Nightshade plant response rating (eastern black nightshade): 100
- Plant response rating, Morningglory (morningglory; [15]): 10
- Plant response rating, Morningglory (morningglory; [16]): 0
- Morningglory plant response rating (morningglory; [17]): 20
- Morningglory plant response rating (morningglory; [16]): 40
- Plant response rating, Barnyardgrass (barnyardgrass; [15]): 70
- Plant response rating, Barnyardgrass (barnyardgrass; [16]): 80
- Barnyardgrass plant response rating (barnyardgrass; [17]): 65
- Barnyardgrass plant response rating (barnyardgrass; [16]): 75
- Plant response rating (0 = no effect, 100 = complete control), Sunflower [2]: 0
- Plant response rating, Sunflower [2, 3]: 0
- Plant response rating, Sunflower [2, 4]: 0
- Sunflower plant response rating [2]: 0
- Plant response rating (0 = no effect, 100 = complete control), Johnsongrass (johnsongrass; 62 g ai/ha, preemergence): 70
- Plant response rating, Johnsongrass (johnsongrass; [6]): 80
- Plant response rating, Johnsongrass (johnsongrass; [7]): 90
- Johnsongrass plant response rating (johnsongrass; Postemergence, scale 0 to 100): 10
- Plant response rating, Johnsongrass (johnsongrass; [8]): 0
- Plant response rating, Johnsongrass (johnsongrass; [9]): 5
- Johnsongrass plant response rating (johnsongrass; [5]): 100
- Plant response rating, Johnsongrass (johnsongrass; [10]): 0
- Plant response rating, Velvetleaf (velvetleaf; [6]): 100
- Plant response rating, Velvetleaf (velvetleaf; [7]): 100
- Velvetleaf plant response rating (velvetleaf; Postemergence, scale 0 to 100): 60
- Plant response rating, Velvetleaf (velvetleaf; [9]): 35
- Velvetleaf plant response rating (velvetleaf; [5]): 100
- Plant response rating, Velvetleaf (velvetleaf; [10]): 10
- Plant response rating (0 = no effect, 100 = complete control), Cupgrass, Woolly (woolly cupgrass; 62 g ai/ha, preemergence): 0
- Plant response rating, Cupgrass, Woolly (woolly cupgrass; [6]): 40
- Plant response rating, Cupgrass, Woolly (woolly cupgrass; [7]): 60
- Cupgrass, Woolly plant response rating (woolly cupgrass; Postemergence, scale 0 to 100): 20
- Plant response rating, Cupgrass, Woolly (woolly cupgrass; [8]): 5
- Plant response rating, Cupgrass, Woolly (woolly cupgrass; [9]): 20
- Cupgrass, Woolly plant response rating (woolly cupgrass; [5]): 80
- Plant response rating, Cupgrass, Woolly (woolly cupgrass; [10]): 5

Compound: CCn1nc(C(C)(C)C)cc1C(=O)Nc1cccc2c1CCN(C1CC1)C2=O [Compound 64]
- Plant response rating (0 = no effect, 100 = complete control), Surinam Grass (Surinam grass): 0
- Plant response rating, Surinam Grass (Surinam grass; [3]): 5
- Surinam Grass plant response rating (Surinam grass; [5]): 50
- Plant response rating (0 = no effect, 100 = complete control), Corn (corn; 62 g ai/ha, preemergence): 0
- Plant response rating, Corn (corn; [6]): 0
- Plant response rating, Corn (corn; [7]): 0
- Corn plant response rating (corn; [5]): 30
- Sedge, Umbrella plant response rating [1, 11]: 0
- Sedge, Umbrella plant response rating [1, 12]: 25
- Sedge, Umbrella plant response rating [1, 13]: 35
- Plant response rating, Sedge, Umbrella [1, 14]: 75
- Plant response rating (0 = no effect, 100 = complete control), Nightshade (eastern black nightshade): 0
- Plant response rating, Nightshade (eastern black nightshade; [3]): 50
- Nightshade plant response rating (eastern black nightshade): 95
- Plant response rating, Morningglory (morningglory; [15]): 10
- Plant response rating, Morningglory (morningglory; [16]): 10
- Morningglory plant response rating (morningglory; [17]): 0
- Morningglory plant response rating (morningglory; [16]): 5
- Plant response rating, Barnyardgrass (barnyardgrass; [15]): 30
- Plant response rating, Barnyardgrass (barnyardgrass; [16]): 75
- Barnyardgrass plant response rating (barnyardgrass; [17]): 55
- Barnyardgrass plant response rating (barnyardgrass; [16]): 85
- Plant response rating (0 = no effect, 100 = complete control), Sunflower [2]: 0
- Plant response rating, Sunflower [2, 3]: 0
- Sunflower plant response rating [2]: 0
- Plant response rating (0 = no effect, 100 = complete control), Johnsongrass (johnsongrass; 62 g ai/ha, preemergence): 0
- Plant response rating, Johnsongrass (johnsongrass; [6]): 20
- Johnsongrass plant response rating (johnsongrass; [5]): 60
- Plant response rating, Velvetleaf (velvetleaf; [6]): 30
- Velvetleaf plant response rating (velvetleaf; [5]): 60
- Plant response rating (0 = no effect, 100 = complete control), Cupgrass, Woolly (woolly cupgrass; 62 g ai/ha, preemergence): 0
- Plant response rating, Cupgrass, Woolly (woolly cupgrass; [6]): 0
- Plant response rating, Cupgrass, Woolly (woolly cupgrass; [7]): 0
- Cupgrass, Woolly plant response rating (woolly cupgrass; [5]): 10
